Where “and” joins values, the source holds several entries; their conditions need not be identical. Identical values can stand only once.

The source of these data is article PMC9785542, “Discovery of 1-Benzhydryl-Piperazine-Based HDAC Inhibitors with Anti-Breast Cancer Activity: Synthesis, Molecular Modeling, In Vitro and In Vivo Biological Evaluation” (Pharmaceutics, 2022).

The target in assay [1] is T1, Human recombinant C-ter-His-FLAG-HDAC1 (Homo sapiens, UniProt Q13547).
T1 construct: His (C); FLAG (C); purchased BPS Bioscience 50051
T1 sequence (Q13547 whole entry): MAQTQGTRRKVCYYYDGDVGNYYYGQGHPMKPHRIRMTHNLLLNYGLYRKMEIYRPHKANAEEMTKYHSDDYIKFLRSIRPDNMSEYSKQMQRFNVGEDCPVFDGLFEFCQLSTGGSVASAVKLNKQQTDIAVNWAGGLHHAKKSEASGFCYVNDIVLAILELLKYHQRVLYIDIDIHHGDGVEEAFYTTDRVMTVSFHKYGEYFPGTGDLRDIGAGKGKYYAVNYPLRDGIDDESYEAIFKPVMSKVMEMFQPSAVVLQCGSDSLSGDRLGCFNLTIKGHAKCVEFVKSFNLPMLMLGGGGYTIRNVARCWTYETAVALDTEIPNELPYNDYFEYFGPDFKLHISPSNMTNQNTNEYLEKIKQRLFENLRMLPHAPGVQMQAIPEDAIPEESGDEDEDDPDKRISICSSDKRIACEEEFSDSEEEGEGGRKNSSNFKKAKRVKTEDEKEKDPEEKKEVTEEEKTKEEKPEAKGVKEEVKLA
Nature of the assay: HDAC-Glo I/II bioluminogenic enzyme assay, HDAC1. Format: biochemical. To be noted: mean ± SD of three independent experiments; read-out: HDAC Inhibition, IC50 ± SD, HDAC1.

In another assay the test system is MCF-7 cells. Kind of assay: Cell viability (MTT) assay, MCF-7. The following applies: Homo sapiens, MCF7, 48 h, read-out: Cytotoxic activity IC50 ± SD, MCF-7. Format: cell-based. The method, then:
Human breast adenocarcinoma cells (MCF-7, ATCC® HTB-22™) and triple-negative breast cancer cells (MDA-MB-231, ATCC® HTB-26™) were obtained from the American Type Culture Collection (Rockville, MD, USA). Cells were maintained as a monolayer culture in DMEM:Ham’s 12 (1:1) medium (Sigma-Aldrich, St. Louis, MO, USA) supplemented with penicillin (192 U/mL), streptomycin (200 µg/mL), and 10% of heat-inactivated fetal calf serum (FCS). Cells were grown at 37 °C in 5% CO2 and humidified air atmosphere, by twice weekly subculture.
Cytotoxic activity of synthesized 1-benzhydryl-piperazine-based HDAC inhibitors was assessed on MDA-MB-231 and MCF-7 cells using an MTT assay. MDA-MB-231 (5 × 10^3 cells/well) and MCF-7 (5 × 10^3 cells/well) were treated with synthesized compounds in six different concentrations (100, 50, 25, 12.5, 6.25, and 3.13 μM), and each concentration was added in five replicates. MTT solution (3-(4,5-dimethylthiazol-2-yl)-2,5-diphenyltetrazolium bromide) (Sigma-Aldrich, St. Louis, USA) was added to each well (20 µL) after 48 h. After 4 h of incubation, 100 μL of 10% SDS was added in each well and incubated at 37 °C. On the next day, the absorbance at 570 nm was recorded. The ratio of absorbance (570 nm) values between treated and control cells multiplied by 100 was used to calculate cell survival (%). The concentration of synthesized HDAC inhibitors that reduced cell viability by 50% was defined as the IC50 value, and was compared to the vehicle control.

The subject of the next assay is MDA-MB-231 cells. Nature of the assay: Apoptosis assay, Annexin V-FITC/7-AAD flow cytometry. The following applies: for early apoptotic cells: 72 h. Format: cell-based, human. As to the method:
Examined breast cancer cells (MDA-MB-231) were stained with annexin V–fluorescein isothiocyanate/and 7AAD (BD Pharmingen, San Diego, CA, USA), and the samples were prepared following the specifications given by manufacturer. The population of apoptotic cells was analyzed by flow cytometry using a FACS Calibur cytometer and Cell Quest computer software (Becton Dickinson, Heidelberg, Germany).
For orientation: A flow cytometer gives signals particle by particle.

Another assay concerns MDA-MB-231 tumor spheres. Kind of assay: 3D tumor sphere model, MTT and imaging. To be noted: for tumor sphere viability: 50 µM, 72 h, formed spheres. Type of assay: cell-based, human. As to the method:
MDA-MB-231 cells were seeded at a cell density of 1000 c/w in 100 μL of DMEM containing 10% FCS in a low-attachment NunclonSphera 96-well ultra-low attachment plate (Thermo Scientific Nunc™, Rochester, NY, USA), to form multicellular tumor spheres, for 4 days. The formation and growth of tumor spheres were examined and imaged with an Olympus CKX53 microscope, using a 10× objective. MDA-MB-231 tumor spheres were treated by carefully adding 50 μL of the medium with fresh nutrient medium for control spheres or with compound-supplemented medium (50 μM) for treated spheres for another 72 h. The cytotoxicity of compounds toward the MDA-MB-231 tumor spheres was investigated by MTT assay.
The formation and growth of tumor spheroids were examined and imaged with an Olympus CKX53 microscope, using 4x objective. The cytotoxicity of compounds toward the MDA-MB-231 tumor spheroids was investigated by MTT assay.

For assay [2], the target named is Human recombinant HDAC-3/NcoR2 (Homo sapiens, UniProt O15379). Nature of the assay: HDAC-Glo I/II bioluminogenic enzyme assay, HDAC3. Format: biochemical. Also noted: purchased BPS Bioscience 50003. To be noted: mean ± SD of three independent experiments; read-out: HDAC Inhibition, IC50 ± SD, HDAC3.
Chain of Human recombinant HDAC-3/NcoR2 (O15379 whole entry): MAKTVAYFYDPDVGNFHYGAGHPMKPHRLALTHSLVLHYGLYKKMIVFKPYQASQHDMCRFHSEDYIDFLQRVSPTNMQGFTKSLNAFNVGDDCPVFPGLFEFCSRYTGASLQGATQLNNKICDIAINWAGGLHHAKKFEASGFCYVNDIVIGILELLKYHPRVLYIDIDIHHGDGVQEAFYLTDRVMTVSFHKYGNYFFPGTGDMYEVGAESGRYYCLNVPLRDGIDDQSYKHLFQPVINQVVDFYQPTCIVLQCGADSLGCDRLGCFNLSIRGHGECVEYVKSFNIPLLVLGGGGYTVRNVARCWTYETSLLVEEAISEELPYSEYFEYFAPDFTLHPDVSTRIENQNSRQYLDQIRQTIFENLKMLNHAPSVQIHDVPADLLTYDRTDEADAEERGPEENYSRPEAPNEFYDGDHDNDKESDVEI
Chain of Human recombinant HDAC-3/NcoR2 (Q9Y618 395-489 partner limits assumed): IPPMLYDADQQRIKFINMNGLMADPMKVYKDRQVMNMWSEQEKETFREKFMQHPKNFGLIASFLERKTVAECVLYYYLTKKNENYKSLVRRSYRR
The target of assay [3] is T2, Human recombinant N-ter-GST-HDAC-6 (Homo sapiens, UniProt Q9UBN7).
T2 sequence (Q9UBN7 1-1215): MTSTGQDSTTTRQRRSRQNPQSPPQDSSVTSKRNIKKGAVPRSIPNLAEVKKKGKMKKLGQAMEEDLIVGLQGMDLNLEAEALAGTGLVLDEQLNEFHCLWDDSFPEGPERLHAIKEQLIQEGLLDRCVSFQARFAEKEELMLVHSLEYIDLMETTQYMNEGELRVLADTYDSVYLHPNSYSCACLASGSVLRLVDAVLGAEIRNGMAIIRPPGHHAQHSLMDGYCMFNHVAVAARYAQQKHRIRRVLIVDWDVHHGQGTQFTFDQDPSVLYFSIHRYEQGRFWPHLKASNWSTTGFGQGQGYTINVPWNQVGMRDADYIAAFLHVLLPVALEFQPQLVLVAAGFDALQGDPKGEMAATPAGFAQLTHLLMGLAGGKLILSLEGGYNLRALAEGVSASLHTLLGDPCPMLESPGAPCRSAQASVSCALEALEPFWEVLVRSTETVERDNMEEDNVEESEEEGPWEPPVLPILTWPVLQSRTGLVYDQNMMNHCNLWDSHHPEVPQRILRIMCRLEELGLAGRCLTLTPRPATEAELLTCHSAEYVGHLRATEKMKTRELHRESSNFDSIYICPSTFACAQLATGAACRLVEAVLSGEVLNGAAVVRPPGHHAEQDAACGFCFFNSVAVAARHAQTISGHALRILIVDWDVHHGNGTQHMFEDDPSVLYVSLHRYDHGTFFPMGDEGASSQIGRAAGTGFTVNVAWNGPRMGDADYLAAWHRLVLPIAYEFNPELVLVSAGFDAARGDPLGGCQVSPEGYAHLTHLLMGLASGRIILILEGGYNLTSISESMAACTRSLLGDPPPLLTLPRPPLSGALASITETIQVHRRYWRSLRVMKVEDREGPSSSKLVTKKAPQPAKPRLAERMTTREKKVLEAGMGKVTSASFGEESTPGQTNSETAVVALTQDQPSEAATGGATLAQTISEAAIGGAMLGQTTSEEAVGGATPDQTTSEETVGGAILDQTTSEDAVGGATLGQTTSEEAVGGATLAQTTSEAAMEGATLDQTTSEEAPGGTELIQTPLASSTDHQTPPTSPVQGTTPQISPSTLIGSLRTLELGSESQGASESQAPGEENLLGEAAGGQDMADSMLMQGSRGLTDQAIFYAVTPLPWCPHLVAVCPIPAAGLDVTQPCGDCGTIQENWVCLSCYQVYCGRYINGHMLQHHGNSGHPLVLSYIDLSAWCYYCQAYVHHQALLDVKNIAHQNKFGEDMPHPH
Nature of the assay: HDAC-Glo I/II bioluminogenic enzyme assay, HDAC6. To be noted: for % HDAC6 Inhibition at 5 μM / inhibition at 5 µM: mean ± standard error of triplicate; for IC50: mean ± SD of three independent experiments, read-out: HDAC Inhibition, IC50 ± SD, HDAC6; for Selectivity Ratio HDAC1/6 / Selectivity Ratio HDAC3/6 / Selectivity Ratio HDAC8/6: ratio of IC50 values. Format: biochemical. Also noted: GST (N); purchased BPS Bioscience 50006.

The term IC50 denotes the midpoint of a concentration-inhibition curve. The inhibition is the change of the read-out against control, counted positive when it falls. Take `O=C(NO)c1ccc(CN2CCN(C(c3ccccc3)c3ccccc3)CC2)cc1` [Compound 9b, 4-(4-(diphenylmethyl)-piperazin-1-ylmethyl)-N-hydroxy-benzamide]: the IC50 in assay [1] was determined as 1470 ± 172 nM. For the same compound, the IC50 in the assay with MCF-7 cells worked out at 99500 ± 700 nM. Moreover, in the assay on MDA-MB-231 cells (IC50 concentration), the early apoptotic cells entry is recorded as “around 45%”. Also, the tumor sphere viability entry in the assay on MDA-MB-231 tumor spheres (MTT) is given as “did not exhibit significant cytotoxic effects”. Also, the IC50 in assay [2] worked out at 3470 ± 121 nM. Moreover, in assay [3], the “% HDAC6 Inhibition at 5 μM” value amounted to 96.9 ± 0.3%, the inhibition at 5 µM is over 90%, the IC50 was 31 ± 4 nM and the “Selectivity Ratio HDAC1/6” value stood at 47.5. In assay [3], the “Selectivity Ratio HDAC3/6” value is 112 and 111.8; the “Selectivity Ratio HDAC8/6” value came out at 23.

For the compound `O=C(CCCCCCCN1CCN(C(c2ccccc2)c2ccccc2)CC1)NO` [Compound 8b, 8-(4-(diphenylmethyl)-piperazin-1-yl)-N-hydroxyoctanamide], in assay [1], the IC50 is 408 ± 22 nM. For the same compound, the half-maximal inhibitory concentration (IC50) with MCF-7 cells was 39100 ± 2700 nM. In addition, the “late apoptotic cell population” value in the assay on MDA-MB-231 cells (5 μM, control 1.13%) was 0.45%. In the assay with MDA-MB-231 cells (5 μM, control 1.27%), the “early apoptotic cell population” value is 4.13%. Besides, in the assay with MDA-MB-231 cells (IC50 concentration), the early apoptotic cells entry is “around 45%”. The IC50 with MDA-MB-231 tumor spheres (Homo sapiens, MDA-MB-231, spheres formed 4 d, treated 72 h, MTT) stood at 50000 nM. Also, the “sphere formation and spheres viability” value with MDA-MB-231 tumor spheres (co-culture 50 μM, 4 d in sphere culture conditions) was “significantly inhibited”. The 50% inhibitory concentration (IC50) in assay [2] stood at 207 ± 14 nM. In addition, in assay [3], the “% HDAC6 Inhibition at 5 μM” value was 97.7 ± 0.2%, the inhibition at 5 µM was over 90%, the concentration for half-maximal inhibition (IC50) was 124 ± 13 nM and the “Selectivity Ratio HDAC1/6” value is recorded as 3.3. Also, in assay [3], the “Selectivity Ratio HDAC3/6” value is listed as 1.7 and the “Selectivity Ratio HDAC8/6” value was 2.

As to `O=C(CCCCCCN1CCN(C(c2ccccc2)c2ccccc2)CC1)NO` [Compound 7b, 7-(4-(diphenylmethyl)-piperazin-1-yl)-N-hydroxyheptanamide], in assay [1], the half-maximal inhibitory concentration (IC50) is 619 ± 23 nM. Moreover, in the assay on MCF-7 cells, the 50% inhibitory concentration (IC50) is over 100000 nM. In addition, the programmed cell death result with MDA-MB-231 cells (IC50 concentration, 24 h) is “slight increase”. Moreover, in the assay on MDA-MB-231 cells (IC50 concentration), the early apoptotic cells result is recorded as “around 45%”. For the same compound, the tumor sphere viability entry with MDA-MB-231 tumor spheres (MTT) is “did not exhibit significant cytotoxic effects”. In addition, in the assay on MDA-MB-231 tumor spheres (co-culture 4 d, at higher concentrations), the sphere formation result was “inhibit sphere formation to some extent”. The IC50 in assay [2] amounted to 267 ± 19 nM. For the same compound, in assay [3], the “% HDAC6 Inhibition at 5 μM” value was found to be 97.1 ± 0.8%, the inhibition at 5 µM is over 90%, the 50% inhibitory concentration (IC50) was 96 ± 8 nM and the “Selectivity Ratio HDAC1/6” value is recorded as 6.4. In assay [3], the “Selectivity Ratio HDAC3/6” value is reported as 2.8 and the “Selectivity Ratio HDAC8/6” value was 3.6.
